IC50 data for 14 compounds are collected here from ChEMBL document CHEMBL1134199, “Peptoids as endothelin receptor antagonists” (Bioorg Med Chem Lett, 2001).

A value given as a limit tells only on which side of the number the result lay.

As usually defined, the IC50 is the concentration at which inhibition is half-maximal.

For assay [1], the target named is T1, Endothelin-1 receptor (Sus scrofa, UniProt Q29010).
T1 sequence (Q29010 whole entry): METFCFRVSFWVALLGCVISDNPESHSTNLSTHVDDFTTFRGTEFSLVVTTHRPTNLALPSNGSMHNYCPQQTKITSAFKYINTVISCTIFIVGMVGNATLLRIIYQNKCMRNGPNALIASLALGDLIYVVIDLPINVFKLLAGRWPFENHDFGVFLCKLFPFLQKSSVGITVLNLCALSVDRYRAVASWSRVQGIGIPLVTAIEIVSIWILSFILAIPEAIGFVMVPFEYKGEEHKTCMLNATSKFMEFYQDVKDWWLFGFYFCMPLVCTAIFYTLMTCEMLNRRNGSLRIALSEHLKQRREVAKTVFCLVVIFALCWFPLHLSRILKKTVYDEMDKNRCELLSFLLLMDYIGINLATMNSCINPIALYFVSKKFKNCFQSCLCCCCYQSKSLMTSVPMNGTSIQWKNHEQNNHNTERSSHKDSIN
The experiment in a line: Ability to bind with Endothelin A receptor competitively in the presence of (125 I) endothelin using receptor binding assay.

Assay [2] concerns the target T2, Endothelin receptor type B (Sus scrofa, UniProt P35463).
T2 sequence (P35463 whole entry): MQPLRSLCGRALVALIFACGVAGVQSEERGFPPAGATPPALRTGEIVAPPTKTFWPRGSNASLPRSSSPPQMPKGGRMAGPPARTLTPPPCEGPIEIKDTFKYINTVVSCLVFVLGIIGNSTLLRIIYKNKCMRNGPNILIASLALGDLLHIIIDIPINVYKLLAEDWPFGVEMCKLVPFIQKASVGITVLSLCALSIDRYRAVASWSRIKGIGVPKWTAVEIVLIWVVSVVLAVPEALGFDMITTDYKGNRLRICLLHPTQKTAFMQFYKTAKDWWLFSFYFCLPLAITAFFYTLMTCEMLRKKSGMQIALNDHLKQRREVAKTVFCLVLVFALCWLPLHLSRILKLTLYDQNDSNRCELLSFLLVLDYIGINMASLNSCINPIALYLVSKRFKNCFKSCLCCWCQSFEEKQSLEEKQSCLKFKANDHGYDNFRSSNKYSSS
The experiment in a line: Ability to bind with Endothelin B receptor competitively in the presence of (125 I) endothelin using receptor binding assay.

For `CCOC(=O)CN(Cc1cc2c(cc1Cl)OCO2)C(Cc1ccc(O)cc1)C(=O)O` (stereo not given), the IC50 was 21.3 µM in assay [1] and 55 µM in assay [2]. Turning to `COc1ccc(CN(C(=O)/C=C/c2ccc3c(c2)OCO3)C(Cc2ccccc2)C(=O)O)cc1` (stereo not given), the IC50 turned out to be 27 µM in assay [1] and 6.4 µM in assay [2]. In the case of `O=C(O)C(Cc1c[nH]c2ccccc12)N(Cc1cc2c(cc1Cl)OCO2)C(=O)/C=C/c1ccc2c(c1)OCO2` (stereo not given), the IC50 in assay [1] is 8.9 µM; in assay [2] it was 0.66 µM.

Turning to `COc1ccc(CN(C(=O)/C=C/c2ccc3c(c2)OCO3)C(Cc2c[nH]c3ccccc23)C(=O)O)cc1` (stereo not given), the values for the IC50 in assay [1] and in assay [2] were 10 µM and 0.47 µM, respectively. In the same order, the values of `COc1ccc(CN(Cc2cc3c(cc2Cl)OCO3)C(Cc2ccc(O)cc2)C(=O)O)cc1` (stereo not given) are more than 100 µM and 5.5 µM.

Consider `COc1cccc(CN(C(=O)/C=C/c2ccc3c(c2)OCO3)C(Cc2ccc(O)cc2)C(=O)O)c1` (stereo not given), for which the IC50 in assay [1] was 31 µM. As for `COc1ccc(CC(C(=O)O)N(Cc2ccc(OC)cc2)Cc2cc(OC)c(OC)c(OC)c2)cc1` (stereo not given), in assay [2], the half-inhibitory concentration (IC50) is 19 µM. For `COc1ccc(C(=O)N(Cc2cc3c(cc2Cl)OCO3)C(Cc2c[nH]c3ccccc23)C(=O)O)cc1` (stereo not given), the IC50 worked out at 30 µM in assay [1] and 49 µM in assay [2]. In the same order, the values of `COc1ccc(CN(Cc2cc(OC)c(OC)c(OC)c2)C(Cc2c[nH]c3ccccc23)C(=O)O)cc1` (stereo not given) are 42 µM and 35 µM. Regarding `O=C(O)C(Cc1c[nH]c2ccccc12)N(Cc1cc2c(cc1Cl)OCO2)Cc1cc2c(cc1Cl)OCO2` (stereo not given), the IC50 in assay [1] stood at 16.3 µM; in assay [2], 6.7 µM. `COc1ccc(CN(Cc2cc(OC)cc(OC)c2)C(Cc2ccc(O)cc2)C(=O)O)cc1` (stereo not given): the IC50 in assay [1] stood at 36 µM. Take `COc1ccc(CN(C(=O)c2ccc(OC)cc2)C(Cc2c[nH]c3ccccc23)C(=O)O)cc1` (stereo not given): the IC50 in assay [1] and in assay [2] was more than 100 µM each time. In the case of `COc1ccc(CN(C(=O)/C=C/c2ccc3c(c2)OCO3)C(Cc2ccc(O)cc2)C(=O)O)cc1` (stereo not given), the IC50 in assay [1] was determined as 6 µM; in assay [2] it was 12.6 µM.

For `O=C(O)C(Cc1ccc(O)cc1)N(Cc1cc2c(cc1Cl)OCO2)C(=O)/C=C/c1ccc2c(c1)OCO2` (stereo not given), the IC50 in assay [1] was 38 µM; in assay [2] it was 66 µM.
